The values that follow come from patent US4041032A, “Pyrazine derivatives” (priority 1974, dated 1977).

Data set [1] relates to emesis induced by apomorphine. As to the kind of experiment: Antiemetic activity, subcutaneous (apomorphine-induced emesis). The following applies: for ED50: Canis lupus familiaris, sc, read-out: Antiemetic activity ED50 (s.c); for Antiemetic activity ED50 (s.c): Table II. Format: in vivo, dog. The procedure:
Each of the test samples was administered to a dog by subcutaneous injection; then 0.1 mg./kg. of apomorphine was administered to a dog by subcutaneous injection after 30 minutes, and the frequency of emesis within 30 minutes after the injection was measured. (Each dog was used only once). From the frequency of emesis, the inhibition rate was calculated and from the relation between the amount of the sample used and the inhibition rate, ED50 (μg/kg.) was determined. Drug activity was assessed by ED50 values.
1. Subcutaneous administration:
Same as Experiment (I-a).

Data set [2] in a line: Cataleptic activity (Courvoisier's method). The following applies: in vivo, sc, rat. The procedure:
According to the Courvoisier's method (Courvoisier, S, Durcot, R. & Jolou, L, (1957), Psychotropic drugs (Ed. Garattini, S and Ghetti, V.), p. 373, Else vier Publishing Company, Amsterdam, London, New York, Princeton), the four limbs of a rat were placed on four rubber stoppers and when the rat could maintain the same pose for 30 seconds, the rat was determined to be positive. The catalepsy was measured every 30 minutes till 240 minutes after the subcutaneous administration of the sample. The sample that produced a positive response in rat even once was determined to be positive in the cataleptic test. From the relation between the positive response and the amount of the sample, ED50 (mg/kg) was determined.

Data set [3] deals with emesis induced by apomorphine. As to the kind of experiment: Antiemetic activity, oral (apomorphine-induced emesis). It counts as in vivo, dog. The following applies: for ED50: Canis lupus familiaris, po, dog, p.o. in capsules with lactose, 90 min before apomorphine 0.1 mg/kg s.c., Table II; for Activity efficiency (ED50 p.o/ED50 s.c): antiemetic ED50, dog. The procedure:
2. Oral administration: Each of the test samples was mixed with lactose and was filled in capsules. The capsules were orally administered to a dog, 0.1 mg./kg. of apomorphine was administered to the dog by subcutaneous injection after 90 minutes, and then the frequency of emesis was measured within 30 minutes after the apomorphine injection. (Each dog was used only once.) The drugs were evaluated by ED50 values in the same way as described in Experiment I-a.

A short description of another data set: in vivo. Conditions: for selectivity ratio: LD50 mouse i.v. / antiemetic ED50 dog s.c., x 1/1000, Table I, read-out: Safety margin (LD50/ED50); for LD50 at 168 h: iv, mouse, i.v. tail injection, mortality after one week, Table I, read-out: Toxicity LD50. The procedure:
Each of the test samples was injected intravenously to a mouse in the tail portion at a rate of 0.1 ml./10 g./10 sec. by an up and down method. The mortality rate after one week was checked and from the relation between the amount of the sample used and the mortality rate, LD50 (mg/kg) was determined.

Data set [4] deals with spontaneous motility of the stomach. As to the kind of experiment: Effect of stimulating gastric motility (ballon method). It counts as in vivo. Conditions: anesthetized dog, i.v.; Table III. The procedure:
After anesthetizing a dog which had fasted overnight by intravenously injecting 30 mg./kg. of pentobarbital, each of the test samples was injected intravenously and then the spontaneous motility of the stomach was recorded by means of a polygraph (RM-150, made by Nihon Koden K. K.) according to the ballon method (Jap. J. Smooth Muscle Res., 2, 15(1966)). In addition, the effect of stimulating the gastric motility was denoted as (+) and (++) respectively when 10 mg./kg. and 5 mg./kg. each of the sample was intervenously injected and the stimulated motility of the stomach continued longer than 20 minutes.

The test system of a further data set is catalepsy. Conditions: in vivo; cited from earlier work.
For another data set, the system named is gastric motility. Conditions: in vivo; cited from earlier work.
The next data set has as its system emesis. Conditions: in vivo; cited from earlier work.
Where [5] appears, read: dog, s.c., 30 min before apomorphine 0.1 mg/kg s.c., Table I.
Setting [6] is: s.c., every 30 min till 240 min, symbol of Table II, read-out: Catalepsy ED50 (not measurable, symbol).
The mark [7] stands for this setting: dog, s.c., 30 min before apomorphine 0.1 mg/kg s.c.

Like-named read-outs stand apart in the source and are kept apart here. Some results are limits rather than exact numbers.

Usually ED50 stands for the midpoint of the dose-response relation. The term LD50 denotes the dose at which mortality reaches 50%. For `CCN1CCCC1CNC(=O)c1nc(Cl)c(N)nc1OC` (centres unmarked) [N-(1-ethylpyrrolidin-2-ylmethyl)-5-amino-6-chloro-3-methoxypyrazine-2-carboxamide], the ED50 in data set [1] (setting [5]) was found to be 0.002 mg/kg. Besides, in data set [2] (setting [6]), the ED50 at 4 h is > 100 mg/kg. Also, in data set [3], the 50% effect level (ED50) was put at a dose of 0.004 mg/kg and the “Activity efficiency (ED50 p.o/ED50 s.c)” value was 2.0. Moreover, in “in vivo”, the selectivity ratio worked out at 45700 and the LD50 at 168 h turned out to be 91.3 mg/kg.

On to `CCN1CCCC1CNC(=O)c1nc(Cl)cnc1OC` (centres unmarked) [N-(1-ethylpyrrolidin-2-ylmethyl)-5-chloro-2-methoxypyrazine-3-carboxamide], for which, in data set [1] (setting [5]), the ED50 came to 0.02 mg/kg. In the data set “in vivo”, the selectivity ratio is 8500 and the LD50 at 168 h was 170 mg/kg.

`CCNc1nc(OC)c(C(=O)NCC2CCCN2CC)nc1Cl` (centres unmarked) [N-(1-ethylpyrrolidin-2-ylmethyl)-6-chloro-5-ethylamino-3-methoxypyrazine-2-carboxamide]: the ED50 in data set [1] (setting [5]) stood at 0.0026 mg/kg. The “Antiemetic activity ED50 (s.c)” value in data set [1] (setting [7]) amounted to 0.0026 mg/kg. For the same compound, the ED50 at 4 h in data set [2] (setting [6]) was > 100 mg/kg. Moreover, in data set [3], the 50% effect level (ED50) was put at a dose of 0.006 mg/kg and the “Activity efficiency (ED50 p.o/ED50 s.c)” value worked out at 2.3. Moreover, in the data set “in vivo”, the selectivity ratio worked out at 23500 and the LD50 at 168 h was determined as 61.1 mg/kg.

`CCNc1nc(OC)c(C(=O)NCC2CCCN2C)nc1Cl` (centres unmarked) [N-(1-methylpyrrolidin-2-ylmethyl)-6-chloro-5-ethylamino-3-methoxypyrazine-2-carboxamide]: the ED50 in data set [1] (setting [5]) worked out at 0.003 mg/kg. Besides, in “in vivo”, the selectivity ratio was 15000 and the LD50 at 168 h stood at 45 mg/kg.

On to `CCOc1nc(N)c(Cl)nc1C(=O)NCCN(CC)CC` [N-(2-diethylaminoethyl)-5-amino-6-chloro-3-ethoxypyrazine-2-carboxamide], for which the ED50 in data set [1] (setting [5]) was 0.012 mg/kg. In the data set “in vivo”, the selectivity ratio was 6010 and the LD50 at 168 h came out at 72.1 mg/kg.

On to `CCN(CC)CCNC(=O)c1nc(Cl)c(N)nc1OC` [N-(2-diethylaminoethyl)-5-amino-6-chloro-3-methoxypyrazine-2-carboxamide], for which, in data set [1] (setting [5]), the 50% effective dose (ED50) was 0.012 mg/kg. Besides, the “Antiemetic activity ED50 (s.c)” value in data set [1] (setting [7]) turned out to be 0.012 mg/kg. The ED50 at 4 h in data set [2] (setting [6]) was > 100 mg/kg. Also, in data set [3], the ED50 came out at 0.07 mg/kg and the “Activity efficiency (ED50 p.o/ED50 s.c)” value was determined as 5.8. In “in vivo”, the selectivity ratio is 12500 and the LD50 at 168 h was found to be 150 mg/kg.

As for `CCN(CC)CCNC(=O)c1nc(Cl)c(Nc2ccccc2)nc1OC` [N-(2-diethylaminoethyl)-5-anilino-6-chloro-3-methoxypyrazine-2-carboxamide], in data set [4], the “Effect of stimulating gastric motility” value is given as “+ to ++”.

As to `CCN(CC)CCNC(=O)c1nc(Cl)c(NC)nc1OC` [N-(2-diethylaminoethyl)-6-chloro-3-methoxy-5-methylaminopyrazine-2-carboxamide], the ED50 in data set [1] (setting [5]) turned out to be 0.01 mg/kg. Besides, in “in vivo”, the selectivity ratio turned out to be 9100 and the 50% lethal dose (LD50) at 168 h turned out to be 91 mg/kg.

Take `CCNc1nc(OC)c(C(=O)NCCN(CC)CC)nc1Cl` [N-(2-diethylaminoethyl)-6-chloro-5-ethylamino-3-methoxypyrazine-2-carboxamide]: the ED50 in data set [1] (setting [5]) came out at 0.02 mg/kg. In addition, the “Antiemetic activity ED50 (s.c)” value in data set [1] (setting [7]) was 0.02 mg/kg. For the same compound, in data set [4], the “Effect of stimulating gastric motility” value is listed as “+ to ++”. Moreover, the ED50 at 4 h in data set [2] (setting [6]) is > 100 mg/kg. In data set [3], the 50% effect level (ED50) was put at a dose of 0.065 mg/kg and the “Activity efficiency (ED50 p.o/ED50 s.c)” value is on record as 3.3. Also, in “in vivo”, the selectivity ratio worked out at 4550 and the LD50 at 168 h is 91 mg/kg.

As to `CN(C)CCCN1c2ccccc2Sc2ccc(Cl)cc21` [chlorpromazine, reference compound], in data set [1], the ED50 stood at 0.25 mg/kg. Besides, the “Antiemetic activity ED50 (s.c)” value in data set [1] (setting [7]) is 0.25 mg/kg. Also, the median effective dose (ED50) at 4 h in data set [2] (s.c., every 30 min till 240 min, Table II, read-out: Catalepsy ED50) was 7 mg/kg. Besides, in data set [3], the ED50 came out at 2 mg/kg and the “Activity efficiency (ED50 p.o/ED50 s.c)” value turned out to be 8.0. Further, in “in vivo”, the selectivity ratio was 290 and the 50% lethal dose (LD50) at 168 h is 71.4 mg/kg.

`CCN(CC)CCNC(=O)c1cc(Cl)c(N)cc1OC` [metoclopramide, N-(diethylaminoethyl)-4-amino-5-chloro-2-methoxybenzamide, reference compound]: the “Catalepsy, literature” value in the data set on catalepsy was “produces catalepsy as a side effect”. In addition, the “Effect on gastric motility, literature” value in the data set on gastric motility is “effect of stimulating gastric motility”. The ED50 in data set [1] (setting [5]) is 0.03 mg/kg; in data set [3] it was 0.13 mg/kg. For the same compound, in data set [1] (setting [7]), the “Antiemetic activity ED50 (s.c)” value was 0.03 mg/kg. Moreover, it took a dose of 45 mg/kg to reach the 50% effect level in data set [2] (ED50 at 4 h). The LD50 at 168 h in “in vivo” was 61 mg/kg. Also, the “Antiemetic activity, literature” value in the data set with emesis is reported as “stronger antiemetic activity than chlorpromazine”.
